In patent US6372297B1, “Wood preservative oxathiazines” (Uniroyal Chemical Company, Inc., priority 1993, dated 2002):
Values after ≈ are worked out from the molar mass of the structure shown. Read-outs that look alike come from different tables or passages of the source.

Experiments:
[1] = system: blue-stain fungi and molds; test: Activity against blue-stain fungi and molds in a stick test (threshold concentrations); conditions: beech sticks, 22° C., 90% relative humidity
Outline: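 Wood sticks soaked 3 h in compound serially diluted in 50% ethanol, dried, then inoculated with fungal or spore suspension. Incubated at 22° C and 90% relative humidity until untreated controls grew, then growth scored 0 (none) to 4 (>50% surface covered).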

[2] = system: molds and blue-stain fungi; test: In vitro activity against molds and blue-stain fungi, poison plate assay (MIC); format: cell-based; conditions: malt extract agar, complete inhibition
Description: The effect of the representative compounds on the growth of certain molds and blue-strain fungi were determined using a poison plate assay according to the following procedure: The solutions of the representative compounds prepared above were further diluted with sterile water to desired concentrations and poured into Petri dishes. Malt extract agar medium was then added aseptically to the Petri dishes and to Petri dishes containing no compound (controls). The Petri dishes were then shaken to provide a uniform distribution of the agar medium. Each Petri dish containing compound and each control Petri dish, was then inoculated with a fungus and incubated for a period of time sufficient to permit complete growth of the fungus in the respective control Petri dish. The Petri dishes containing compound were then examined to determine the amount of inhibition of fungi for each concentration of compound tested.

O=S1(=O)CCON=C1c1ccc(Cl)s1 [Compound 61, 3-(5-chloro-2-thienyl)-5,6-dihydro-1,4,2-oxathiazine-4,4-dioxide]
Threshold concentration (ppm), A. niger, score 0 ([1]; A. niger, minimum concentration to obtain score 0): <250 ppm | Threshold concentration (ppm), A. niger, score 1-2 ([1]; A. niger, minimum concentration to obtain score 1-2): <250 ppm | Threshold concentration (ppm), Aureobasidium, score 0 ([1]; Aureobasidium, minimum concentration to obtain score 0): >1000 ppm | Threshold concentration (ppm), Aureobasidium, score 1-2 ([1]; Aureobasidium, minimum concentration to obtain score 1-2): 250-500 ppm | Threshold concentration (ppm), Sclerophoma, score 0 ([1]; Sclerophoma, minimum concentration to obtain score 0): 100 ppm | Threshold concentration (ppm), Sclerophoma, score 1-2 ([1]; Sclerophoma, minimum concentration to obtain score 1-2): <50 ppm | Threshold concentration (ppm), Trichoderma, score 0 ([1]; Trichoderma, minimum concentration to obtain score 0): 2500 ppm | Threshold concentration (ppm), Trichoderma, score 1-2 ([1]; Trichoderma, minimum concentration to obtain score 1-2): 1000-2500 ppm | MIC ([2]; A. amstelodami, read-out: MIC (ppm) against A. amstelodami): 5 µg/mL (≈ 19.9 µM) | MIC ([2]; Aspergillus niger, A. niger, read-out: MIC (ppm) against A. niger): < 1 µg/mL | MIC ([2]; Aspergillus versicolor, A. versicolor, read-out: MIC (ppm) against A. versicolor): 2.5 µg/mL (≈ 9.93 µM) | MIC ([2]; Aureobasidium pullulans, A. pullulans, read-out: MIC (ppm) against A. pullulans): 10 µg/mL (≈ 39.7 µM) | MIC ([2]; C. pilifera, read-out: MIC (ppm) against C. pilifera): 2.5 µg/mL (≈ 9.93 µM) | MIC ([2]; Cladosporium cladosporioides, C. cladosporioides, read-out: MIC (ppm) against C. cladosporioides): 10 µg/mL (≈ 39.7 µM) | MIC ([2]; Fusarium solani, F. solani, read-out: MIC (ppm) against F. solani): 5 µg/mL (≈ 19.9 µM) | MIC ([2]; Geotrichum candidum, G. candidum, read-out: MIC (ppm) against G. candidum): 10 µg/mL (≈ 39.7 µM) | MIC ([2]; P. purpurogenum, read-out: MIC (ppm) against P. purpurogenum): 5 µg/mL (≈ 19.9 µM) | MIC ([2]; P. violacea, read-out: MIC (ppm) against P. violacea): 25 µg/mL (≈ 99.3 µM) | MIC ([2]; Paecilomyces variotii, P. variotii, read-out: MIC (ppm) against P. variotii): 5 µg/mL (≈ 19.9 µM) | MIC ([2]; S. atra, read-out: MIC (ppm) against S. atra): 2.5 µg/mL (≈ 9.93 µM) | MIC ([2]; S. entoxylina, read-out: MIC (ppm) against S. entoxylina): 10 µg/mL (≈ 39.7 µM) | MIC ([2]; Trichoderma viride, T. viride, read-out: MIC (ppm) against T. viride): 10 µg/mL (≈ 39.7 µM) | MIC ([2]; U. atrum, read-out: MIC (ppm) against U. atrum): 10 µg/mL (≈ 39.7 µM) | melting point: 113 to 114 °C
